Molecules are shown by their SMILES.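 Exposure lasted 48 hours, with cells grown in 96-well plates and compounds tested at five concentrations. At the GI50, growth is halved.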 The source made the active and inactive calls. No stated cut-off is given here; in the data, active = GI50 up to about 1.1 µM and inactive = higher. Bounds are passed on as bounds.

Among the test systems are IGROV-1; Hs-578T; HOP-62; UACC-257; OVCAR-8; SK-MEL-5; SF-268; OVCAR-3; NCI-H460; UACC-62; SK-MEL-28; DU-145; Malme-3M; BT-549; CAKI-1; OVCAR-5; A498; KM12; T47D; MDA-N.
What all share (test): growth of human tumour cells (NCI), 48 h

As for `O=C(NNC(=O)c1ccccc1S)c1ccccc1S` [BIS(THIOSALICYL)HYDRAZIDE], the GI50 in the assay on IGROV-1 is 7.29 µM (inactive); with Hs-578T, 45 µM (inactive); in the assay on HOP-62, 15.9 µM (inactive); in the assay with UACC-257, 13.8 µM (inactive); in the assay with OVCAR-8, 12 µM (inactive); in the assay with SK-MEL-5, 23 µM (inactive). Besides, the GI50 in the assay on SF-268 is 11.2 µM (inactive); with OVCAR-3 it was 9.14 µM (inactive); in the assay with NCI-H460, 9.29 µM (inactive); with UACC-62 it was 9.27 µM (inactive); in the assay with SK-MEL-28, > 25 µM (inactive); in the assay with DU-145, 20.6 µM (inactive). Further, the GI50 in the assay on Malme-3M is 23.7 µM (inactive); with BT-549 it was 9.38 µM (inactive); with CAKI-1, 6.93 µM (inactive); in the assay on OVCAR-5 it was 12.4 µM (inactive); with A498 it was > 100 µM (inactive); with KM12, 24.5 µM (inactive). Further, the GI50 with T47D is 10.8 µM (inactive); in the assay with MDA-N, 18.2 µM (inactive).
Turning to `CC(=O)N[C@@H](Cc1ccc(O)cn1)C(=O)NCc1ccc2c(c1)OCO2`, the GI50 in the assay on IGROV-1, with Hs-578T, in the assay on HOP-62, in the assay on UACC-257, in the assay on OVCAR-8 and in the assay with SK-MEL-5 was > 100 µM (inactive) in each case. Moreover, the GI50 in the assay with SF-268, with OVCAR-3, with NCI-H460, with UACC-62, in the assay with SK-MEL-28 and in the assay with DU-145 was > 100 µM (inactive) throughout. The GI50 in the assay on Malme-3M, in the assay on BT-549, in the assay with CAKI-1, with OVCAR-5, in the assay with A498 and with KM12 was > 100 µM (inactive) each time. Further, the GI50 in the assay with T47D and in the assay on MDA-N was > 100 µM (inactive) each time.
On to `CN1CN(c2ccccc2)C2(CCN(C3Nc4ccccc4O3)CC2)C1=O` (stereo not given), for which the GI50 with IGROV-1 is 22.9 µM (inactive); with Hs-578T, 12.9 µM (inactive); in the assay with HOP-62, 17 µM (inactive); in the assay with UACC-257, 16.7 µM (inactive); in the assay with OVCAR-8, 26.2 µM (inactive); in the assay on SK-MEL-5, 17.7 µM (inactive). Also, the GI50 in the assay with SF-268 is 23.3 µM (inactive); with OVCAR-3, 17.2 µM (inactive); with NCI-H460, 17.7 µM (inactive); in the assay on UACC-62, 16.1 µM (inactive); in the assay on SK-MEL-28, 23.5 µM (inactive); in the assay with DU-145 it was 22.7 µM (inactive). For the same compound, the GI50 in the assay on Malme-3M is 17.3 µM (inactive); with BT-549 it was 15.7 µM (inactive); in the assay on CAKI-1, 25.5 µM (inactive); in the assay with OVCAR-5, 17.6 µM (inactive); in the assay with A498 it was 15.5 µM (inactive); in the assay with KM12, 19.6 µM (inactive). For the same compound, the GI50 is 22.2 µM (inactive) in the assay on T47D and 17.9 µM (inactive) in the assay with MDA-N.
For `COC(=O)CC(c1cn(S(=O)(=O)c2ccc(C)cc2)c2ccccc12)C1C[C@@H](C(=O)OC)N(C(=O)OC(C)(C)C)C1=O` (stereo not given in full), the GI50 in the assay with IGROV-1 was 16.4 µM (inactive); in the assay with Hs-578T, > 100 µM (inactive); with HOP-62, > 100 µM (inactive); with UACC-257, > 100 µM (inactive); with OVCAR-8 it was 43.4 µM (inactive); in the assay with SK-MEL-5 it was > 100 µM (inactive). Further, the GI50 is 53.6 µM (inactive) in the assay on SF-268; 31 µM (inactive) with OVCAR-3; 26.6 µM (inactive) in the assay on NCI-H460; 55.6 µM (inactive) with UACC-62; > 100 µM (inactive) in the assay with SK-MEL-28; 87.1 µM (inactive) with DU-145. Further, the GI50 in the assay on Malme-3M is 83.4 µM (inactive); in the assay with BT-549, > 100 µM (inactive); in the assay on CAKI-1, 31.7 µM (inactive); in the assay with OVCAR-5, > 100 µM (inactive); in the assay with A498, 71.4 µM (inactive); with KM12 it was 71.9 µM (inactive). The values for the GI50 in the assay on T47D and with MDA-N were 95.3 µM (inactive) and 55.8 µM (inactive), respectively.
On to `O=c1ccs[nH]1`, for which the GI50 in the assay with IGROV-1 was 24.2 µM (inactive); with Hs-578T it was 22 µM (inactive); with HOP-62, 17 µM (inactive); with UACC-257, 8.91 µM (inactive); with OVCAR-8, 12.7 µM (inactive); with SK-MEL-5, 5.78 µM (inactive). The GI50 with SF-268 is 14.2 µM (inactive); in the assay with OVCAR-3 it was 8.17 µM (inactive); in the assay on NCI-H460 it was 9.08 µM (inactive); in the assay with UACC-62 it was 16.4 µM (inactive); in the assay with SK-MEL-28, 25.1 µM (inactive); in the assay with DU-145, 40.5 µM (inactive). Also, the GI50 is 8.91 µM (inactive) with Malme-3M; 16.8 µM (inactive) in the assay on BT-549; 9.46 µM (inactive) with CAKI-1; 16.3 µM (inactive) with OVCAR-5; 46.8 µM (inactive) with A498; 26.7 µM (inactive) in the assay with KM12. In addition, the GI50 with T47D was 3.81 µM (inactive); in the assay on MDA-N it was 17.5 µM (inactive).
For the compound `CC(=O)Nc1nc(Cl)cc(NCC2(CO)CCC2)n1`, the GI50 with IGROV-1, in the assay on Hs-578T, in the assay on HOP-62, in the assay with UACC-257, with OVCAR-8 and in the assay with SK-MEL-5 was > 100 µM (inactive) each time. Moreover, the GI50 with SF-268, in the assay on OVCAR-3, in the assay on NCI-H460, in the assay with UACC-62, in the assay with SK-MEL-28 and in the assay on DU-145 was > 100 µM (inactive) in each case. Moreover, the GI50 in the assay on Malme-3M, in the assay on BT-549, in the assay on CAKI-1, with OVCAR-5, in the assay with A498 and in the assay on KM12 was > 100 µM (inactive) in each case. The GI50 with T47D and in the assay on MDA-N was > 100 µM (inactive) in each case.
For the compound `CC(=O)NC1C(OCc2ccccc2)OC(CO)C(O)C1OC(C)C(=O)NC(C(=O)NC(CCC(=O)NCCCCNc1c2ccccc2nc2cccc([N+](=O)[O-])c12)C(N)=O)C(C)C` (stereo not given), the GI50 was 2.05 µM (inactive) in the assay on IGROV-1; 8.57 µM (inactive) in the assay on Hs-578T; 3.15 µM (inactive) in the assay on HOP-62; 3.14 µM (inactive) with UACC-257; 1.91 µM (inactive) in the assay on OVCAR-8; 2.22 µM (inactive) in the assay with SK-MEL-5. Further, the GI50 is 2.99 µM (inactive) in the assay with SF-268; 2.13 µM (inactive) with OVCAR-3; 0.887 µM (active) in the assay on NCI-H460; 2.09 µM (inactive) with UACC-62; 2.67 µM (inactive) in the assay with SK-MEL-28; 2.55 µM (inactive) in the assay on DU-145. Moreover, the GI50 with Malme-3M is 1.82 µM (inactive); in the assay with BT-549 it was 5.97 µM (inactive); in the assay with CAKI-1 it was 3.37 µM (inactive); in the assay with OVCAR-5, 2.71 µM (inactive); with A498 it was 1.84 µM (inactive); in the assay on KM12 it was 2.36 µM (inactive). Also, the figures for the GI50 in the assay on T47D and in the assay on MDA-N were 1.82 µM (inactive) and 1.64 µM (inactive), respectively.
In the case of `Cc1ccc(C(=O)O)c(/C=C2\Cc3ccc(C)cc3C2=O)c1`, the GI50 is > 100 µM (inactive) in the assay with IGROV-1; 64.3 µM (inactive) in the assay on Hs-578T; 44.2 µM (inactive) in the assay with HOP-62; 78.5 µM (inactive) in the assay with UACC-257; 61.5 µM (inactive) in the assay on OVCAR-8; 25.1 µM (inactive) with SK-MEL-5. For the same compound, the GI50 was 41 µM (inactive) in the assay with SF-268; 31.8 µM (inactive) in the assay on OVCAR-3; 56.4 µM (inactive) with NCI-H460; 69.2 µM (inactive) in the assay with UACC-62; 78.9 µM (inactive) in the assay on SK-MEL-28; 79.8 µM (inactive) in the assay with DU-145. The GI50 in the assay with Malme-3M is 95.9 µM (inactive); in the assay on BT-549, 12.9 µM (inactive); in the assay on CAKI-1, 44.3 µM (inactive); in the assay on OVCAR-5, 28.4 µM (inactive); with A498, 65.9 µM (inactive); in the assay on KM12, 61.4 µM (inactive). Also, the values for the GI50 in the assay on T47D and with MDA-N were 92 µM (inactive) and 37.8 µM (inactive), respectively.
With `CCN(/C=C1/C(=O)C(c2ccccc2)N(c2ccccc2)C1=O)CC` (stereo not given), the GI50 with IGROV-1, in the assay with Hs-578T, in the assay on HOP-62, in the assay with UACC-257, with OVCAR-8 and with SK-MEL-5 was > 10 µM (inactive) each time. Moreover, the GI50 with SF-268, in the assay on OVCAR-3, in the assay with NCI-H460, in the assay on UACC-62, in the assay on SK-MEL-28 and in the assay on DU-145 was > 10 µM (inactive) throughout. Also, the GI50 in the assay with Malme-3M, in the assay with BT-549, with CAKI-1, with OVCAR-5, in the assay with A498 and in the assay on KM12 was > 10 µM (inactive) in each case. For the same compound, the GI50 with T47D and in the assay with MDA-N was > 10 µM (inactive) throughout.
As to `CCOC(=O)NC(=O)c1cn(CCCOC(=O)CCCCCCCCC(=O)OCCCn2cc(C(=O)NC(=O)OCC)c(=O)n(C)c2=O)c(=O)n(C)c1=O`, the GI50 was > 100 µM (inactive) in the assay with IGROV-1; > 100 µM (inactive) with Hs-578T; > 70.6 µM (inactive) with HOP-62; > 100 µM (inactive) with UACC-257; > 79.4 µM (inactive) with OVCAR-8; > 100 µM (inactive) in the assay with SK-MEL-5. Also, the GI50 in the assay with SF-268, with OVCAR-3, with NCI-H460, with UACC-62, with SK-MEL-28 and in the assay on DU-145 was > 100 µM (inactive) throughout. Further, the GI50 in the assay with Malme-3M is > 100 µM (inactive); in the assay with BT-549, > 100 µM (inactive); with CAKI-1 it was > 69 µM (inactive); in the assay on OVCAR-5 it was > 100 µM (inactive); in the assay on A498 it was > 100 µM (inactive); in the assay on KM12 it was > 100 µM (inactive). Further, the GI50 in the assay on T47D and in the assay with MDA-N was > 100 µM (inactive) each time.

For the origin of these results see ChEMBL document CHEMBL1201862, “PubChem BioAssay data set” (2004).
